Source: ChEMBL document CHEMBL4265872, “Around the macrolide - Impact of 3D structure of macrocycles on lipophilicity and cellular accumulation” (Eur J Med Chem, 2017)

Experiments:
[1] = Drug accumulation in human NCI-H292 cells at 3 to 10 uM incubated for 3 hrs by LC-MS analysis relative to azithromycin; format: ADME, cell-based; conditions: nci-h292, 3 h
[2] = Chromatographic hydrophobicity, logD of the compound at pH 7.4 by fast-gradient RP-HPLC method; format: physicochemical; conditions: buffer

Row | Compound | Drug uptake [1] [%] | chromatographic logD [2]
1 | CCC(=O)NCCCO[C@H]1[C@H](C)[C@@H](O[C@@H]2O[C@H](C)C[C@H](N(C)C)[C@H]2O)[C@](C)(O)C[C@@H](C)CN(C)[C@H](C)[C@@H](O)[C@](C)(O)[C@@H](CC)OC(=O)[C@@H]1C | 22 | 1.6
2 | CC[C@H]1OC(=O)[C@H](C)[C@@H](O[C@H]2C[C@@](C)(OC)[C@@H](O)[C@H](C)O2)[C@H](C)[C@@H](O[C@@H]2O[C@H](C)C[C@H](N(C)C)[C@H]2OCCCNC(=O)c2c(C)nn(C)c2Cl)[C@](C)(O)C[C@@H](C)CN(C)[C@H](C)[C@@H](O)[C@]1(C)O | 95 | 3.08
3 | CC[C@H]1OC(=O)[C@H](C)[C@@H](O[C@H]2C[C@@](C)(OC)[C@@H](O)[C@H](C)O2)[C@H](C)[C@@H](O[C@@H]2O[C@H](C)C[C@H](N(C)C)[C@H]2O)[C@](C)(O)C[C@@H](C)CN(CCCNC(=O)c2c(C)nn(C)c2Cl)[C@H](C)[C@@H](O)[C@]1(C)O | 5 | 2.2
4 | CCCCCCCC(=O)NCCCN1C[C@H](C)C[C@@](C)(O)[C@H](O[C@@H]2O[C@H](C)C[C@H](N(C)C)[C@H]2O)[C@@H](C)[C@H](O)[C@@H](C)C(=O)O[C@H](CC)[C@@](C)(O)[C@H](O)[C@H]1C | 80 | 3.08
5 | CCCCCCCC(=O)NCCCN(C)[C@H]1C[C@@H](C)O[C@@H](O[C@@H]2[C@@H](C)[C@H](O)[C@@H](C)C(=O)O[C@H](CC)[C@@](C)(O)[C@H](O)[C@@H](C)N(C)C[C@H](C)C[C@@]2(C)O)[C@@H]1O | 226 | 4.84
6 | CC[C@H]1OC(=O)[C@H](C)[C@@H](O)[C@H](C)[C@@H](O)[C@](C)(O)C[C@@H](C)CN(C)[C@H](C)[C@@H](O)[C@]1(C)O [AZITHROMYCIN AGLYCONE] | 13 | 1.29
7 | CC[C@H]1OC(=O)[C@H](C)[C@@H](O[C@H]2C[C@@](C)(OC)[C@@H](O)[C@H](C)O2)[C@H](C)[C@@H](O[C@@H]2O[C@H](C)C[C@H](N(C)C)[C@H]2O)[C@](C)(OC)C[C@@H](C)C(=O)[C@H](C)[C@@H](O)[C@]1(C)O [CLARITHROMYCIN] | 35 | 3.5
8 | CC[C@H]1OC(=O)[C@H](C)[C@@H](O)[C@H](C)[C@@H](O[C@@H]2O[C@H](C)C[C@H](N(C)C)[C@H]2O)[C@](C)(O)C[C@@H](C)CN(C)[C@H](C)[C@@H](O)[C@]1(C)O [DESCLADINOSYL AZITHROMYCIN] | 56 | 1.35

The next lines start with the values.

Row | Drug uptake [1] [%] | chromatographic logD [2] | Compound
9 | 457 | 3.74 | CCCCCCCC(=O)NCCCN(C)[C@H]1C[C@@H](C)O[C@@H](O[C@@H]2[C@@H](C)[C@H](O[C@H]3C[C@@](C)(OC)[C@@H](O)[C@H](C)O3)[C@@H](C)C(=O)O[C@H](CC)[C@@](C)(O)[C@H](O)[C@@H](C)N(C)C[C@H](C)C[C@@]2(C)O)[C@@H]1O
10 | 207 | 3.74 | CCCCCCCC(=O)NCCCN1C[C@H](C)C[C@@](C)(O)[C@H](O[C@@H]2O[C@H](C)C[C@H](N(C)C)[C@H]2O)[C@@H](C)[C@H](O[C@H]2C[C@@](C)(OC)[C@@H](O)[C@H](C)O2)[C@@H](C)C(=O)O[C@H](CC)[C@@](C)(O)[C@H](O)[C@H]1C
11 | 41 | 2.74 | CCC(=O)NCCCO[C@@H]1[C@@H](C)N(C)C[C@H](C)C[C@@](C)(O)[C@H](O[C@@H]2O[C@H](C)C[C@H](N(C)C)[C@H]2O)[C@@H](C)[C@H](O[C@H]2C[C@@](C)(OC)[C@@H](O)[C@H](C)O2)[C@@H](C)C(=O)O[C@H](CC)[C@@]1(C)O
12 | 22 | 2.54 | CC[C@H]1OC(=O)[C@H](C)[C@@H](O[C@H]2C[C@@](C)(OC)[C@@H](O)[C@H](C)O2)[C@H](C)[C@@H](O[C@@H]2O[C@H](C)C[C@H](N(C)C)[C@H]2OCCCNC(=O)COC)[C@](C)(O)C[C@@H](C)CN(C)[C@H](C)[C@@H](O)[C@]1(C)O
13 | 756 | 5.18 | CCCCCCCC(=O)NCCCO[C@@H]1[C@@H](C)N(C)C[C@H](C)C[C@@](C)(O)[C@H](O[C@@H]2O[C@H](C)C[C@H](N(C)C)[C@H]2O)[C@@H](C)[C@H](O[C@H]2C[C@@](C)(OC)[C@@H](O)[C@H](C)O2)[C@@H](C)C(=O)O[C@H](CC)[C@@]1(C)O
14 | 5 | 2.06 | CC[C@H]1OC(=O)[C@H](C)[C@@H](O[C@H]2C[C@@](C)(OC)[C@@H](O)[C@H](C)O2)[C@H](C)[C@@H](O[C@@H]2O[C@H](C)C[C@H](N(C)CCCNC(C)=O)[C@H]2O)[C@](C)(O)C[C@@H](C)CN(C)[C@H](C)[C@@H](O)[C@]1(C)O
15 | 281 | 6.02 | CCCCCCCC(=O)NCCCO[C@H]1[C@H](C)O[C@@H](O[C@H]2[C@H](C)[C@@H](O[C@@H]3O[C@H](C)C[C@H](N(C)C)[C@H]3O)[C@](C)(OC)C[C@@H](C)C(=O)[C@H](C)[C@@H](O)[C@](C)(O)[C@@H](CC)OC(=O)[C@@H]2C)C[C@@]1(C)OC
16 | 75 | 3.08 | CCCCC(=O)NCCCN(C)[C@H]1C[C@@H](C)O[C@@H](O[C@@H]2[C@@H](C)[C@H](O[C@H]3C[C@@](C)(OC)[C@@H](O)[C@H](C)O3)[C@@H](C)C(=O)O[C@H](CC)[C@@](C)(O)[C@H](O)[C@@H](C)N(C)C[C@H](C)C[C@@]2(C)O)[C@@H]1O
17 | 15 | 2.54 | CCC(=O)NCCCO[C@H]1[C@H](C)O[C@@H](O[C@H]2[C@H](C)[C@@H](O[C@@H]3O[C@H](C)C[C@H](N(C)C)[C@H]3O)[C@](C)(O)C[C@@H](C)CN(C)[C@H](C)[C@@H](O)[C@](C)(O)[C@@H](CC)OC(=O)[C@@H]2C)C[C@@]1(C)OC
18 | 41 | 2.7 | CCC(=O)NCCCO[C@H]1[C@H](O[C@@H]2[C@@H](C)[C@H](O[C@H]3C[C@@](C)(OC)[C@@H](O)[C@H](C)O3)[C@@H](C)C(=O)O[C@H](CC)[C@@](C)(O)[C@H](O)[C@@H](C)N(C)C[C@H](C)C[C@@]2(C)O)O[C@H](C)C[C@@H]1N(C)C
19 | 100 | 2.11 | CC[C@H]1OC(=O)[C@H](C)[C@@H](O[C@H]2C[C@@](C)(OC)[C@@H](O)[C@H](C)O2)[C@H](C)[C@@H](O[C@@H]2O[C@H](C)C[C@H](N(C)C)[C@H]2O)[C@](C)(O)C[C@@H](C)CN(C)[C@H](C)[C@@H](O)[C@]1(C)O [AZITHROMYCIN]
